This passage reports IC50 results from patent US11744824B2, “2-amino-3-carbonyl imidazopyridine and pyrazolopyridine compounds” (1ST Biotherapeutics, Inc., priority 2020, dated 2023).

The target of this assay is GST-tagged recombinant human RIP2 (Homo sapiens (Human), UniProt O43353). The assay is described as follows: RIP2 Kinase Assay (ADP-Glo). It is filed as biochemical. To be noted: in vitro kinase activity, ATP 25 μM. Here is the method: GST-tagged recombinant human RIP2 (25 ng) is incubated with 5 μL of compounds (0.5% DMSO), 5 μL of MBP (0.5 μg/μl) and 5 μL of ATP (25 μM) in buffer (40 mM Tris, 7.5; 20 mM MgCl2; 0.1 mg/ml BSA; 50 μM DTT). The assay was started by incubating the reaction mixture in a 96-well plate at 30° C. for 60 minutes. After the incubation, 25 μL ADP-Glo reagent was added, and the reaction was incubated at 30° C. for 40 minutes to stop the reaction and degrade residual ATP. The ADP product was then converted to ATP by adding 50 μL per well of detection reagent. Luminescence was detected after 30 minutes room temperature incubation with the Molecular device I3X plate reader. The IC50 values were calculated from a series of percent inhibition values determined at a range of inhibitor concentration using software routines as implemented in the GraphPad Prism 7 software and SigmaPlot 13.0.
For orientation: ADP-Glo turns the ADP formed in a reaction into a luminescent signal.

Chain of GST-tagged recombinant human RIP2 (O43353 whole entry): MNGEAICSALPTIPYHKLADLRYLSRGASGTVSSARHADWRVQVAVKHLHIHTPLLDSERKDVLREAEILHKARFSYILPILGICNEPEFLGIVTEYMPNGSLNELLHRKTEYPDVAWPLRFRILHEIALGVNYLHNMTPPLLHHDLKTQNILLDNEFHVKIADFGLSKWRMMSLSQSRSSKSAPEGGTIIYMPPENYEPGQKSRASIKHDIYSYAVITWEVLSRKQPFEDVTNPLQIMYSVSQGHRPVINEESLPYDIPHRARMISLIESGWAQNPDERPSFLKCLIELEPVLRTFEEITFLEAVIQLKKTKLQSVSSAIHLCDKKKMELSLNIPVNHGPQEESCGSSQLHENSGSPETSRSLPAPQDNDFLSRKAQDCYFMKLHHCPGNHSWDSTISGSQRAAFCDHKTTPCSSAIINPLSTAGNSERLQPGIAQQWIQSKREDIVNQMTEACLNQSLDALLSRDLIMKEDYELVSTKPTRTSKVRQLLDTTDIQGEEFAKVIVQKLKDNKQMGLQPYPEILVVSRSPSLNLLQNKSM

As a reminder, the IC50 is the concentration needed to halve the response being measured. For the compound `CN1CCN(c2cccc(-c3ccc4nc(N)c(C(=O)[C@@H]5C[C@@H]5F)n4c3)c2)CC1` [Example 56], the concentration for half-maximal inhibition (IC50) was in the range of 101 to 500 nM.

Take `Nc1nc2ccc(-c3ccc4cc[nH]c4c3)cn2c1C(=O)[C@@H]1C[C@@H]1F` [Example 58]: the 50% inhibitory concentration (IC50) fell in the range of 1 to 100 nM.

Consider `Nc1nc2ccc(-c3cccc4cc[nH]c34)cn2c1C(=O)[C@@H]1C[C@@H]1F` [Example 59], for which the 50% inhibitory concentration (IC50) was in the range of 1 to 100 nM.

In the case of `Cc1c(F)c(N(C)C)c2[nH]ncc2c1-c1ccc2nc(N)c(C(=O)[C@@H]3C[C@@H]3F)n2c1` [Example 61], the IC50 lay within 101 to 500 nM.

Take `CSc1c(F)c(C)c(-c2ccc3nc(N)c(C(=O)[C@@H]4C[C@@H]4F)n3c2)c2cn[nH]c12` [Example 62]: the half-maximal inhibitory concentration (IC50) is 101 to 500 nM.

With `Nc1nc2ccc(-c3ccc4occc4c3)cn2c1C(=O)[C@@H]1C[C@@H]1F` [Example 63], the IC50 fell in the range of 1 to 100 nM.

Consider `CSc1c(F)c(Cl)c(-c2ccc3nc(N)c(C(=O)[C@@H]4C[C@@H]4F)n3c2)c2cn[nH]c12` [Example 66], for which the 50% inhibitory concentration (IC50) was 101 to 500 nM.

`Cc1c(F)cccc1-c1ccc2nc(NC(=O)OC(C)(C)C)c(C(=O)[C@@H]3C[C@@H]3F)n2c1` [Example 70, tert-butyl (6-(3-fluoro-2-methylphenyl)-3-((1S,2S)-2-fluorocyclopropane-1-carbonyl)imidazo[1,2-a]pyridin-2-yl)carbamate]: the half-maximal inhibitory concentration (IC50) was > 1000 nM.

In the case of `Cc1c(F)cccc1-c1ccc2nc(N3CCCC3)c(C(=O)[C@@H]3C[C@@H]3F)n2c1` [Example 71, (6-(3-fluoro-2-methylphenyl)-2-(pyrrolidin-1-yl)imidazo[1,2-a]pyridin-3-yl)((1S,2S)-2-fluorocyclopropyl)methanone], the half-inhibitory concentration (IC50) is > 1000 nM.

On to `Cc1cc(-c2ccc3nc(N)c(C(=O)[C@@H]4C[C@@H]4F)n3c2)sn1` [Example 72], for which the concentration for half-maximal inhibition (IC50) lay within 101 to 500 nM.

With `Cc1c(F)cccc1-c1ccc2nc(N)c(C(=O)c3ncccn3)n2c1` [Example 76], the IC50 fell in the range of 1 to 100 nM.

For the compound `Cc1c(F)cccc1-c1ccc2nc(N)c(C(=O)c3ccncn3)n2c1` [Example 77], the IC50 is 101 to 500 nM.

`Nc1nc2ccc(-c3cnc4[nH]ccc4c3)cn2c1C(=O)c1ccncn1` [Example 78]: the 50% inhibitory concentration (IC50) was 1 to 100 nM.

Take `Nc1nc2ccc(-c3ccc4[nH]ncc4c3)cn2c1C(=O)[C@@H]1C[C@@H]1F` [Example 80]: the IC50 lay in the range of 1 to 100 nM.

As to `Nc1nc2ccc(-c3ccc4[nH]ncc4c3Cl)cn2c1C(=O)[C@@H]1C[C@@H]1F` [Example 81], the IC50 was 1 to 100 nM.

As to `CNCCNc1nc2ccc(-c3cccc(F)c3C)cn2c1C(=O)[C@@H]1C[C@@H]1F` [Example 87, (6-(3-fluoro-2-methylphenyl)-2-((2-(methylamino)ethyl)amino)imidazo[1,2-a]pyridin-3-yl)((1S,2S)-2-fluorocyclopropyl)methanone], the IC50 was > 1000 nM.

Take `CC(=O)Nc1nc2ccc(-c3cccc(F)c3C)cn2c1C(=O)[C@@H]1C[C@@H]1F` [Example 88, N-(6-(3-fluoro-2-methylphenyl)-3-((1S,2S)-2-fluorocyclopropane-1-carbonyl)imidazo[1,2-a]pyridin-2-yl)acetamide]: the IC50 was in the range of 101 to 500 nM.

For `Nc1nc2ccc(-c3cnc4[nH]ccc4c3)cn2c1C(=O)C1CCNC1` (centres unmarked) [Example 91], the half-maximal inhibitory concentration (IC50) fell in the range of 101 to 500 nM.

For `Nc1nc2c(F)cc(-c3ccc4[nH]ccc4c3)cn2c1C(=O)[C@@H]1C[C@@H]1F` [Example 92], the IC50 is 101 to 500 nM.

For `Cc1c(F)cccc1-c1ccc2nc(NCCN)c(C(=O)[C@@H]3C[C@@H]3F)n2c1` [Example 93], the 50% inhibitory concentration (IC50) was > 1000 nM.

Take `Nc1nc2c(F)cc(-c3cccc4[nH]ccc34)cn2c1C(=O)[C@@H]1C[C@@H]1F` [Example 96]: the IC50 lay in the range of 101 to 500 nM.

For `Cc1c(-c2cc(F)c3nc(N)c(C(=O)[C@@H]4C[C@@H]4F)n3c2)cnc2[nH]ccc12` [Example 97], the 50% inhibitory concentration (IC50) lay within 1 to 100 nM.

Consider `CC(C)(C)OC(=O)n1cc(-c2ccc3nc(N)c(C(=O)[C@@H]4C[C@@H]4F)n3c2)c2ccccc21` [Example 98], for which the IC50 was > 1000 nM.

As for `Cc1c(F)cccc1-c1cc(F)c2nc(N)c(C(=O)[C@@H]3C[C@@H]3F)n2c1` [Example 99, (2-amino-8-fluoro-6-(3-fluoro-2-methylphenyl)imidazo[1,2-a]pyridin-3-yl)((1S,2S)-2-fluorocyclopropyl)methanone], the 50% inhibitory concentration (IC50) lay within 101 to 500 nM.

Turning to `Nc1nc2ccc(-c3ccc4[nH]cnc4c3)cn2c1C(=O)[C@@H]1C[C@@H]1F` [Example 102], the IC50 was in the range of 1 to 100 nM.

`Cc1c(-c2ccc3nc(N)c(C(=O)[C@@H]4C[C@@H]4F)n3c2)ccc2[nH]cnc12` [Example 103]: the IC50 lay in the range of 101 to 500 nM.

For the compound `Cc1c(-c2ccc3nc(N)c(C(=O)[C@@H]4C[C@@H]4F)n3c2)cnc2c1ccn2C` [Example 106], the IC50 fell in the range of 101 to 500 nM.

Regarding `Cc1c(F)cccc1-c1ccc2nc(N)c(C(=O)N(C)C3CC3)n2c1` [Example 107, 2-amino-N-cyclopropyl-6-(3-fluoro-2-methylphenyl)-N-methylimidazo[1,2-a]pyridine-3-carboxamide], the IC50 was > 1000 nM.

For `Cc1c(F)cccc1-c1ccc2nc(N)c(C(=O)N[C@@H]3C[C@@H]3F)n2c1` [Example 108], the IC50 lay in the range of 101 to 500 nM.

Consider `Cc1c(F)cccc1-c1ccc2nc(N)c(C(=O)NC3CC3)n2c1` [Example 109], for which the IC50 fell in the range of 101 to 500 nM.

Regarding `Nc1nc2ccc(-c3c[nH]c4ccc(Cl)cc34)cn2c1C(=O)[C@@H]1C[C@@H]1F` [Example 111], the IC50 was 101 to 500 nM.

On to `CC(=O)NNC(=O)c1c(N)nc2ccc(-c3cccc(F)c3C)cn12` [Example 112, N′-acetyl-2-amino-6-(3-fluoro-2-methylphenyl)imidazo[1,2-a]pyridine-3-carbohydrazide], for which the IC50 was > 1000 nM.

Regarding `Nc1nc2ccc(-c3cnc4ccccc4c3)cn2c1C(=O)[C@@H]1C[C@@H]1F` [Example 116], the IC50 is 101 to 500 nM.

For the compound `Nc1nc2ccc(-c3cncc4ccccc34)cn2c1C(=O)[C@@H]1C[C@@H]1F` [Example 117], the 50% inhibitory concentration (IC50) was in the range of 1 to 100 nM.

As for `Cc1ccccc1-c1ccc2nc(N)c(C(=O)[C@@H]3C[C@@H]3F)n2c1` [Example 118], the half-inhibitory concentration (IC50) was in the range of 1 to 100 nM.

In the case of `Nc1nc2ccc(-c3ccccc3OCCF)cn2c1C(=O)[C@@H]1C[C@@H]1F` [Example 119], the IC50 fell in the range of 101 to 500 nM.

As to `Nc1nc2ccc(-c3cccc(F)c3OCCF)cn2c1C(=O)[C@@H]1C[C@@H]1F` [Example 120], the IC50 was 101 to 500 nM.

In the case of `CC(C)(C)OC(=O)n1cccc1-c1ccc2nc(N)c(C(=O)[C@@H]3C[C@@H]3F)n2c1` [Example 121], the IC50 is > 1000 nM.

Consider `CC(C)(C)OC(=O)n1ccc(-c2ccc3nc(N)c(C(=O)[C@@H]4C[C@@H]4F)n3c2)c1` [Example 122], for which the IC50 was > 1000 nM.

Regarding `Nc1nc2ccc(-c3cccc(F)c3CCCO)cn2c1C(=O)[C@@H]1C[C@@H]1F` [Example 123], the half-maximal inhibitory concentration (IC50) fell in the range of 101 to 500 nM.

`Nc1nc2ccc(-c3ccc[nH]3)cn2c1C(=O)[C@@H]1C[C@@H]1F` [Example 124]: the concentration for half-maximal inhibition (IC50) is > 1000 nM.

Take `Nc1nc2ccc(-c3cc[nH]c3)cn2c1C(=O)[C@@H]1C[C@@H]1F` [Example 125]: the IC50 was > 1000 nM.

In the case of `Nc1nc2ccc(-c3cccc(F)c3CCO)cn2c1C(=O)[C@@H]1C[C@@H]1F` [Example 126], the IC50 was > 1000 nM.

As for `Nc1nc2ccc(-c3cccc(F)c3CO)cn2c1C(=O)[C@@H]1C[C@@H]1F` [Example 127], the 50% inhibitory concentration (IC50) is > 1000 nM.
